Reference: paper PMC9405216, “Antimicrobial and Cytotoxic Cyathane-Xylosides from Cultures of the Basidiomycete Dentipellis fragilis” (Antibiotics, 2022)
In brackets after ≈: the same amount, converted by molar mass. Read-outs that look alike come from different tables or passages of the source.

Tests used:
Type in all cases: cell-based
[1] = tested on: Bacillus subtilis (DSM 10); test: Serial dilution MIC assay, Bacillus subtilis; details: overnight incubation, n.i. = no inhibition
Experimental: (§1) Serial dilution assays in 96-well microtiter plates were performed according to our standard protocol in order to determine the minimum inhibitory concentrations (MICs) of pure isolated compounds against different microorganisms. Essentially, aliquots of compounds 1–5 and 9 (20 µL), each with an initial concentration of 1 mg/mL, were diluted in MeOH together with the respective microorganisms to concentrations ranging between 67 µg/mL and 0.5 µg/mL in the 96-well plates, followed by overnight incubation. The MIC was then determined as the lowest concentration at which no growth of the test organism was observed. A broad spectrum of clinically approved test pathogens and sensitivity indicator strains were used in the assays (Table 4 and Table 5). Ciprofloxacin, oxytetracycline, kanamycin, and gentamycin were used as positive controls against bacterial pathogens, while nystatin was used as the positive control against fungi.

[2] = tested on: MCF-7 (A115) human breast adenocarcinoma; test: MTT cytotoxicity test, MCF-7; details: MCF7, 120 h, MCF-7 human breast adenocarcinoma, five days incubation
Description: (§2) A panel of mammalian cell lines was used to determine the cytotoxicity of the compounds following a previously published protocol. The assay was initially performed using the sensitive cell lines KB3.1 (human endocervical adenocarcinoma) and L929 (mouse fibroblasts). Active compounds were further tested using the cell lines MCF-7 (human breast adenocarcinoma), PC-3 (human prostate adenocarcinoma), SKOV-3 (ovarian carcinoma), A549 (human lung carcinoma), and A431 (human squamous cell carcinomas) (Table 6). The cell lines A549, KB 3.1, and L929 were cultured in DMEM (Gibco, provided by Thermo Fisher Scientific), PC-3 in F12-K (Gibco) and MC-7, and SKOV-3 and A431 in RPMI (Gibco). With the exception of A549, all cell lines were supplemented with 10% bovine serum (Gibco). All cell lines were cultured at 37 °C. The L929 and KB 3.1 cell lines were cultivated under an atmosphere of 10% (v/v) carbon dioxide. Cytotoxicity tests were then carried out using MTT (3-(4,5-dimethylthiazol-2-yl)-2,5-diphenyltetrazolium bromide) in 96-well microtiter plates. Serial dilutions of the compounds (60 µL aliquots, each with an initial concentration of 1 mg/mL) were added into 120 µL aliquots of cell suspension (50000 cells/mL) in the 96-well plates. These were incubated for five days, after which an MTT assay was performed. The absorbance was taken at 590 nm using an Elisa plate reader (Victor, Überlingen, Germany). The half-maximal inhibitory concentration (IC50), the concentration at which cell growth inhibition was 50% of the control, was calculated as described elsewhere.

[3] = tested on: A549 (ACC107) human lung carcinoma; test: MTT cytotoxicity test, A549; details: Homo sapiens, 120 h, five days incubation
Description: as §2

[4] = tested on: SKOV-3 (ovarian carcinoma); test: MTT cytotoxicity test, SKOV-3; details: Homo sapiens, SK-OV-3, 120 h, five days incubation
Description: as §2

[5] = tested on: Staphylococcus aureus (DSM 346); test: Serial dilution MIC assay, Staphylococcus aureus; details: overnight incubation, n.i. = no inhibition
Experimental: as §1

[6] = tested on: Schizosaccharomyces pombe (DSM 70572); test: Serial dilution MIC assay, Schizosaccharomyces pombe; details: overnight incubation, n.i. = no inhibition
Experimental: as §1

[7] = tested on: other cell lines (MCF-7, A549, PC-3, SKOV-3, A431); test: MTT cytotoxicity test, other cell lines of the panel; details: range over the cell lines other than L929 and KB3.1 (Table 6)
Description: as §2, with “These were incubated for five days, after which an MTT assay was performed.” left out, “The half-maximal inhibitory concentration (IC50), the concentration at which cell growth inhibition was 50% of the control, was calculated as described elsewhere.” left out

[8] = tested on: KB3.1 (ACC158) human endocervical adenocarcinoma; test: MTT cytotoxicity test, KB3.1; details: KB3.1 human endocervical adenocarcinoma, five days incubation, n.c. = no cytotoxicity
Description: as §2

[9] = tested on: Actinobacter baumannii (DSM 30008); test: Serial dilution MIC assay, Actinobacter baumannii; details: serial dilution 67-0.5 µg/mL, overnight incubation, n.i. = no inhibition
Experimental: as §1

[10] = tested on: L929 (ACC2) mouse fibroblasts; test: MTT cytotoxicity test, L929; details: five days incubation, n.c. = no cytotoxicity
Description: as §2

[11] = tested on: Mycolicibacterium smegmatis (ATCC 700084); test: Serial dilution MIC assay, Mycolicibacterium smegmatis; details: overnight incubation, n.i. = no inhibition
Experimental: as §1

[12] = tested on: Rhodotorula glutinis (DSM 10134); test: Serial dilution MIC assay, Rhodotorula glutinis; details: overnight incubation, n.i. = no inhibition
Experimental: as §1

[13] = tested on: A431 (ACC91) human squamous cell carcinomas; test: MTT cytotoxicity test, A431; details: A-431, 120 h, five days incubation
Description: as §2

[14] = tested on: Pseudomonas aeruginosa (DSM PA14); test: Serial dilution MIC assay, Pseudomonas aeruginosa; details: serial dilution 67-0.5 µg/mL, overnight incubation, n.i. = no inhibition
Experimental: as §1

[15] = tested on: Candida albicans (DSM 1665); test: Serial dilution MIC assay, Candida albicans; details: serial dilution 67-0.5 µg/mL, overnight incubation, n.i. = no inhibition
Experimental: as §1

[16] = tested on: Escherichia coli (DSM 1116); test: Serial dilution MIC assay, Escherichia coli; details: serial dilution 67-0.5 µg/mL, overnight incubation, n.i. = no inhibition
Experimental: as §1

[17] = tested on: Pichia anomala (DSM 6766); test: Serial dilution MIC assay, Pichia anomala; details: overnight incubation, n.i. = no inhibition
Experimental: as §1

[18] = tested on: PC-3 (ACC465) human prostate adenocarcinoma; test: MTT cytotoxicity test, PC-3; details: 120 h, PC-3 human prostate adenocarcinoma, five days incubation
Description: as §2

[19] = tested on: Mucor hiemalis (DSM 2656); test: Serial dilution MIC assay, Mucor hiemalis; details: overnight incubation, n.i. = no inhibition
Experimental: as §1

[20] = tested on: Chromobacterium violaceum (DSM 30191); test: Serial dilution MIC assay, Chromobacterium violaceum; details: overnight incubation, n.i. = no inhibition
Experimental: as §1

[21] = tested on: tested microorganisms (bacteria and fungi); test: Serial dilution MIC assays, whole panel of tested strains; details: all bacteria and fungi of Tables 4 and 5, result in words
Experimental: as §1

[22] = DSM10, serial dilution 67-0.5 µg/mL, read-out: MIC
[23] = DSM346, serial dilution 67-0.5 µg/mL, read-out: MIC
[24] = DSM10134, serial dilution 67-0.5 µg/mL, read-out: MIC
[25] = DSM2656, serial dilution 67-0.5 µg/mL, read-out: MIC

MIC [1, 22] [µg/mL] | MIC [5, 23] [µg/mL] | MIC [9] | MIC [12, 24] [µg/mL] | MIC [14] | MIC [15] | MIC [16] | MIC [19, 25] [µg/mL] | MIC ([20]; serial dilution 67-0.5 µg/mL) | MIC ([6]; serial dilution 67-0.5 µg/mL) | MIC ([11]; serial dilution 67-0.5 µg/mL) | MIC ([17]; serial dilution 67-0.5 µg/mL) | SMILES | IC50 ([8]; KB 3-1, 120 h, read-out: IC50) [µM] | IC50 ([10]; 120 h, read-out: IC50) [µM] | IC50 [10] | IC50 [8] | further results
1 (≈ 2.32 µM) | 4.2 (≈ 9.76 µM) | n.i. | 16.7 (≈ 38.8 µM) | n.i. | n.i. | n.i. | 16.7 (≈ 38.8 µM) | n.i. | – | – | – | CC(C)C1=C2C3CC=C4C5OC6C(O)(COC7OC(C4C76O)C3(C)CCC2(C)CC1)O5 (stereo not drawn) [Compound 1, dentifragilin A] | 2.2 | 5.8 | – | – | IC50 [2]: 0.7 µM; IC50 [3]: 2.8 µM; IC50 [4]: 1.9 µM; MIC ([6]; DSM70572, serial dilution 67-0.5 µg/mL, read-out: MIC): 33.3 µg/mL (≈ 77.3 µM); IC50 [7]: 0.7 to 15.8 µM; MIC ([11]; ATCC700084, serial dilution 67-0.5 µg/mL, read-out: MIC): 66.6 µg/mL (≈ 155 µM); IC50 [13]: 15.8 µM; MIC ([17]; Hansenula anomala, DSM6766, serial dilution 67-0.5 µg/mL, read-out: MIC): 66.6 µg/mL (≈ 155 µM); IC50 [18]: 2.3 µM
66.6 (≈ 150 µM) | 66.6 (≈ 150 µM) | n.i. | – | n.i. | n.i. | n.i. | – | n.i. | n.i. | n.i. | n.i. | CC(C)C1=C2[C@H]3CC=C4[C@@H]5O[C@@H]6[C@@]7(O)[C@@H](OC[C@]6(O)O5)O[C@@H]([C@@H]47)[C@]3(C)CC[C@@]2(C)CC1=O [Compound 2, dentifragilin B] | 51 | – | no activity | – | MIC ([12]; serial dilution 67-0.5 µg/mL): n.i.; MIC ([19]; serial dilution 67-0.5 µg/mL): n.i.
16.7 (≈ 37.1 µM) | 33.3 (≈ 73.9 µM) | n.i. | 66.6 (≈ 148 µM) | n.i. | n.i. | n.i. | 66.6 (≈ 148 µM) | n.i. | n.i. | n.i. | n.i. | CC(C)C1=C2[C@H]3CC[C@H](CO)[C@@H]4[C@H](O[C@@H]5OC[C@@H](O)[C@H](O)[C@@]54O)[C@]3(C)CC[C@@]2(C)CC1=O [Compound 4, dentifragilin D] | 42.2 | 48.9 | weak activities | weak activities | –
16.7 (≈ 38.6 µM) | 16.7 (≈ 38.6 µM) | n.i. | 66.6 (≈ 154 µM) | n.i. | n.i. | n.i. | 33.3 (≈ 77 µM) | – | n.i. | n.i. | n.i. | CC(C)C1=C2[C@H]3CC=C(C=O)[C@@H]4[C@H](O[C@@H]5OC[C@@H](O)[C@H](O)[C@@]54O)[C@]3(C)CC[C@@]2(C)CC1 [Compound 5, dentifragilin E] | 15.7 | 34.7 | weak activities | weak activities | MIC ([20]; DSM30191, serial dilution 67-0.5 µg/mL, read-out: MIC): 66.6 µg/mL (≈ 154 µM)
– | – | – | – | – | – | – | – | – | – | – | – | CC(C)C1=C2[C@H]3CC[C@H](CO)[C@@H]4[C@H](O[C@@H]5OC[C@@H](O)[C@H](O)[C@@]54O)[C@]3(C)CC[C@@]2(C)CC1 [Compound 6, dentifragilin F] | – | – | not cytotoxic | not cytotoxic | –
– | – | – | – | – | – | – | – | – | – | – | – | CO[C@H]1O[C@@]2(O)[C@H](O)CO[C@H]3O[C@H]4[C@@H]([C@@H]1CC[C@@H]1C5=C(C(C)C)CC[C@]5(C)CC[C@]14C)[C@]32O [Compound 7, dentifragilin G] | 10.3 | 14.9 | weak activities | weak activities | –

SMILES | MIC [1, 22] [µg/mL] | MIC [5, 23] [µg/mL] | MIC [9] | MIC [12, 24] [µg/mL] | MIC [14] | MIC [15] | MIC [16] | MIC [19, 25] [µg/mL] | MIC ([20]; serial dilution 67-0.5 µg/mL) | MIC ([6]; serial dilution 67-0.5 µg/mL) | MIC ([11]; serial dilution 67-0.5 µg/mL) | MIC ([17]; serial dilution 67-0.5 µg/mL) | IC50 ([8]; KB 3-1, 120 h, read-out: IC50) [µM] | IC50 ([10]; 120 h, read-out: IC50) [µM] | IC50 [10] | IC50 [8] | further results
CC(C)C1=C2[C@H]3CC[C@@H]4CO[C@@]5(O)[C@H](O)CO[C@H]6O[C@@H]([C@@H]4[C@]65O)[C@]3(C)CC[C@@]2(C)CC1=O [Compound 3, dentifragilin C] | – | – | n.i. | – | n.i. | n.i. | n.i. | – | n.i. | n.i. | n.i. | n.i. | – | – | not cytotoxic | not cytotoxic | MIC ([1]; serial dilution 67-0.5 µg/mL): n.i.; MIC ([5]; serial dilution 67-0.5 µg/mL): n.i.; activity against all tested microorganisms [21]: devoid of any activity; MIC ([12]; serial dilution 67-0.5 µg/mL): n.i.; MIC ([19]; serial dilution 67-0.5 µg/mL): n.i.
